Experimental data taken from ChEMBL document CHEMBL1131038, “Derivatives of the triazoloquinazoline adenosine antagonist (CGS 15943) having high potency at the human A2B and A3 receptor subtypes” (J Med Chem, 1998).

What was measured:
[1] = Ratio against rat A2A receptor and Human A3 receptor
[2] = Ratio against rat A1 receptor and Human A3 receptor
Adenosine receptor A3 = biological target: T1, Adenosine receptor A3 (Homo sapiens, UniProt P0DMS8); experiment: biochemical
T1 sequence (P0DMS8 whole entry): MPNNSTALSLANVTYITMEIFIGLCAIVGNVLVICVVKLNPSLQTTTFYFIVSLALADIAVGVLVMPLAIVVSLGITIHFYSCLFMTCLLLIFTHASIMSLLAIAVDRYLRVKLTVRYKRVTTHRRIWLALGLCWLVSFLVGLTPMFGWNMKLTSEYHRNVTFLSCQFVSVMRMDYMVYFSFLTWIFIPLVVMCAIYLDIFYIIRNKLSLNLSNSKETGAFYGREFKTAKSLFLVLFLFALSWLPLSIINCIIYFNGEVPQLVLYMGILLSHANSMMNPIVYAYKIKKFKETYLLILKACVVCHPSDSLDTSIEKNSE
Description: Binding affinity at cloned human adenosine A3 receptor expressed in HEK293 cells was determined using [125I]AB-MECA as radioligand

Adenosine receptor A2a = Adenosine receptor A2a (Rattus norvegicus, UniProt P30543); experiment: Binding affinity was determined in radioligand binding assay at rat striatal Adenosine A2A receptor vs [3H]-CGS- 21680
Adenosine receptor A2a, sequence (P30543 whole entry): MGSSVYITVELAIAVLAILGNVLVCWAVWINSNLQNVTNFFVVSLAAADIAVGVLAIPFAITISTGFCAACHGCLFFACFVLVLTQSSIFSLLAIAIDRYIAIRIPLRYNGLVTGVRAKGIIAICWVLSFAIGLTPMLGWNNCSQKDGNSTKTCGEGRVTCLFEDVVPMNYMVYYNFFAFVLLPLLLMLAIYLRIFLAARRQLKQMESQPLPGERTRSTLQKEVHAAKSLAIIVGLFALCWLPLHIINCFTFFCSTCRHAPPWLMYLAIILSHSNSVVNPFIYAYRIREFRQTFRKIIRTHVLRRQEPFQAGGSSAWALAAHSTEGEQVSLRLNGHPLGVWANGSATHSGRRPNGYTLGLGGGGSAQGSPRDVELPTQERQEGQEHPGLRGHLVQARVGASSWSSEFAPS

Adenosine receptor A1 = biological target: T2, Adenosine receptor A1 (Rattus norvegicus, UniProt P25099)
T2 sequence (P25099 whole entry): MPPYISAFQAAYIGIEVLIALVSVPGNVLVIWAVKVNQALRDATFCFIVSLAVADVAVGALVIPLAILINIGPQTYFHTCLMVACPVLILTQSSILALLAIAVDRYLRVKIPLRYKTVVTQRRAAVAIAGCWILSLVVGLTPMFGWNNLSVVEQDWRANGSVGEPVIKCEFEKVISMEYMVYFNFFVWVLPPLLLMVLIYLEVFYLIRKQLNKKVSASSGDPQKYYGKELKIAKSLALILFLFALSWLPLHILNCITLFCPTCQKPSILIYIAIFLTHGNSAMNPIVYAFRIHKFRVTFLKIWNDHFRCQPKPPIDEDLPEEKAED
Description: Binding affinity was determined in radioligand binding assay at rat brain adenosine A1 receptor vs [3H]R-PIA

[3] = biological target: T3, Adenosine receptor A2b (Homo sapiens) (UniProt P29275); experiment: Inhibition at 50 uM on cAMP production induced by 50 uM 5`-(N-ethylcarboxamido)adenosine in CHO cell line transfected with human Adenosine A2B receptor cDNA; type: cell-based
T3 sequence (whole entry): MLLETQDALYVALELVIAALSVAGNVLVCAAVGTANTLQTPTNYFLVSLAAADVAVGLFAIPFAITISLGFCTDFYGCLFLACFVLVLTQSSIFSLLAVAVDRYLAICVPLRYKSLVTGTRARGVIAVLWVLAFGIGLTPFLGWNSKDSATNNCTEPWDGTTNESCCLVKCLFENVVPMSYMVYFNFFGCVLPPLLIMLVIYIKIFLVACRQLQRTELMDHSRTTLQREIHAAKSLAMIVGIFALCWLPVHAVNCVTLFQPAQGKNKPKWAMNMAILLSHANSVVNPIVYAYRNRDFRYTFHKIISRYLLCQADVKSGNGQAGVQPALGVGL

Adenosine receptor A2b = biological target: T4, Adenosine receptor A2b (Homo sapiens, UniProt P29275); experiment: Inhibition of 50 uM 5`-(N-ethylcarboxamido)adenosine induced cAMP production in CHO cell line expressing human Adenosine A2B receptor; type: cell-based
T4 sequence (P29275 whole entry): T3 sequence (whole entry)

SMILES | Selectivity ratio [1] | Selectivity ratio [2] | Ki (Adenosine receptor A3) | Ki (Adenosine receptor A2a) | Ki (Adenosine receptor A1) | inhibition [3] | IC50 (Adenosine receptor A2b)
CC(NC(=O)OC(C)(C)C)C(=O)Nc1nc2ccc(Cl)cc2c2nc(-c3ccco3)nn12 (stereo unspecified) | 0.08 | 0.66 | 82.9 nM | 6.65 nM | 54.7 nM |  | 
CCO/C(O)=C1\C(C)=NC(c2ccccc2)=C(C(=O)OCc2ccccc2)C1C#Cc1ccccc1 (stereo unspecified) |  |  |  | > 100 nM |  |  | 
CCC(=O)Nc1nc2ccc(Cl)cc2c2nc(-c3ccco3)nn12 |  |  |  |  |  | 66% | 
O=C(CCCCC(=O)OCc1ccccc1)Nc1nc2ccc(Cl)cc2c2nc(-c3ccco3)nn12 | 0.37 | 6.8 | 44.7 nM | 16.7 nM | 304 nM |  | 
O=C(Cc1ccccc1I)Nc1nc2ccc(Cl)cc2c2nc(-c3ccco3)nn12 | < 1 | < 1 | > 10000 nM | 17.2 nM | 2300 nM |  | 
COC(=O)CCCCCCC(=O)Nc1nc2ccc(Cl)cc2c2nc(-c3ccco3)nn12 | 0.13 | 0.79 | 59 nM | 7.43 nM | 46.6 nM |  | 
CCO/C(O)=C1\C(C)=NC(c2ccccc2)=C(C(=O)OCc2ccc([N+](=O)[O-])cc2)C1C#Cc1ccccc1 (stereo unspecified) |  |  |  | > 100 nM | > 100 nM |  | 
CC(=O)Nc1nc2ccc(Cl)cc2c2nc(-c3ccco3)nn12 |  |  |  |  |  | 92% | 2650 nM
O=C(Nc1nc2ccc(Cl)cc2c2nc(-c3ccc(Br)o3)nn12)c1ccccc1 |  |  |  |  |  | 0% | 
NCCCCC(=O)Nc1nc2ccc(Cl)cc2c2nc(-c3ccco3)nn12 | 0.02 | 0.12 | 57.9 nM | 1.13 nM | 6.99 nM | 100% | 1770 nM
C[C@@H](NC(=O)OC(C)(C)C)C(=O)Nc1nc2ccc(Cl)cc2c2nc(-c3ccco3)nn12 | 0.41 | 1 | 46.3 nM | 18.8 nM | 48.6 nM |  | 
O=C(Cc1ccc(I)cc1)Nc1nc2ccc(Cl)cc2c2nc(-c3ccco3)nn12 | 0.16 | 0.22 | 62.9 nM | 9.93 nM | 13.8 nM | 42% | 
O=C(CCc1ccccc1)Nc1nc2ccc(Cl)cc2c2nc(-c3ccco3)nn12 |  |  | 23.6 nM |  |  | 43% | 
O=C(Cc1cccc(I)c1)Nc1nc2ccc(Cl)cc2c2nc(-c3ccco3)nn12 | 0.011 | 0.051 | 882 nM | 9.67 nM | 45.4 nM |  | 
Nc1ccc(CC(=O)Nc2nc3ccc(Cl)cc3c3nc(-c4ccco4)nn23)cc1 |  |  | 3.56 nM |  |  | 90% | 7400 nM
CCCC(=O)Nc1nc2ccc(Cl)cc2c2nc(-c3ccco3)nn12 |  |  |  |  |  | 66% | 
C[C@@H](N)C(=O)Nc1nc2ccc(Cl)cc2c2nc(-c3ccco3)nn12 | 0.026 | 0.17 | 1140 nM | 29.7 nM | 193 nM |  | 
Nc1ccc(CC(=O)Nc2nc3ccc(Cl)cc3c3nc(-c4ccco4)nn23)cc1I | 0.21 | 4.4 | 49.3 nM | 10.4 nM | 217 nM | 23% | 
CC(C(=O)Nc1nc2ccc(Cl)cc2c2nc(-c3ccco3)nn12)(c1ccccc1)c1ccccc1 | 2.3 | 4.6 | 194 nM | 453 nM | 890 nM |  | 
O=C(Nc1nc2ccc(Cl)cc2c2nc(-c3ccco3)nn12)c1cccc(I)c1 |  |  |  |  |  | 38% | 
CCCCC(=O)Nc1nc2ccc(Cl)cc2c2nc(-c3ccco3)nn12 |  |  |  |  |  | 79% | 
NCCCCCC(=O)Nc1nc2ccc(Cl)cc2c2nc(-c3ccco3)nn12 | 0.048 | 0.47 | 213 nM | 10.3 nM | 99.6 nM | 79% | 
C[C@H](C(=O)Nc1nc2ccc(Cl)cc2c2nc(-c3ccco3)nn12)c1ccccc1 | 31 | 130 | 0.362 nM | 11.1 nM | 46.2 nM |  | 

SMILES | Selectivity ratio [1] | Selectivity ratio [2] | Ki (Adenosine receptor A3) | Ki (Adenosine receptor A2a) | Ki (Adenosine receptor A1) | inhibition [3] | IC50 (Adenosine receptor A2b)
CCCn1c(=O)n2nc(-c3ccco3)nc2c2cc(Cl)ccc21 |  |  |  |  |  | 0% | 
O=C(Nc1nc2ccc(Cl)cc2c2nc(-c3ccco3)nn12)C(c1ccccc1)c1ccccc1 | 21 | 220 | 0.586 nM | 12.1 nM | 129 nM |  | 
O=C(Cc1ccccc1)Nc1nc2ccc(Cl)cc2c2nc(-c3ccco3)nn12 |  |  |  | 10.3 nM | 52.7 nM | 71% | 
NCCCCCCC(=O)Nc1nc2ccc(Cl)cc2c2nc(-c3ccco3)nn12 | 0.16 | 0.33 | 346 nM | 55.9 nM | 114 nM | 75% | 
NCCC(=O)Nc1nc2ccc(Cl)cc2c2nc(-c3ccco3)nn12 | 0.0088 | 0.1 | 874 nM | 7.58 nM | 89.8 nM | 83% | 13300 nM
C[C@H](N)C(=O)Nc1nc2ccc(Cl)cc2c2nc(-c3ccco3)nn12 | 0.12 | 0.33 | 1200 nM | 143 nM | 390 nM |  | 
CC(C)(C)OC(=O)NCCCC(=O)Nc1nc2ccc(Cl)cc2c2nc(-c3ccco3)nn12 | 0.6 | 1.4 |  | 19.9 nM | 45.9 nM | 47% | 
COC(=O)CCC(=O)Nc1nc2ccc(Cl)cc2c2nc(-c3ccco3)nn12 | 0.52 | 1.3 | 55.1 nM | 28.8 nM | 71.8 nM |  | 
Clc1ccc2nc(NCc3ccccc3)n3nc(-c4ccco4)nc3c2c1 | 4.7 | 28 | 42.5 nM | 200 nM |  | 21% | 
CC(C)(C)OC(=O)NCCC(=O)Nc1nc2ccc(Cl)cc2c2nc(-c3ccco3)nn12 | 1.1 | 4.6 | 6.71 nM | 7.58 nM | 31 nM |  | 
O=C(Nc1nc2ccc(Cl)cc2c2nc(-c3ccco3)nn12)c1ccccc1 |  |  |  |  |  | 58% | 
CC(C)(C)OC(=O)NCCCCC(=O)Nc1nc2ccc(Cl)cc2c2nc(-c3ccco3)nn12 | 0.17 | 1.4 | 22 nM | 3.64 nM | 30.1 nM |  | 
Nc1nc2ccc(Cl)cc2c2nc(-c3ccco3)nn12 [CGS-15943] |  |  |  | 3.3 nM |  | 100% | 
CC(C)(C)OC(=O)NCCCCCCC(=O)Nc1nc2ccc(Cl)cc2c2nc(-c3ccco3)nn12 | 0.21 | 0.71 | 53.7 nM | 11.1 nM | 38.2 nM |  | 
O=C(/C=C/c1ccccc1)Nc1nc2ccc(Cl)cc2c2nc(-c3ccco3)nn12 | 0.71 | 3.9 | 72.1 nM | 59.8 nM | 282 nM | 38% | 
CC(C)(C)OC(=O)NCCCCCC(=O)Nc1nc2ccc(Cl)cc2c2nc(-c3ccco3)nn12 | 1 | 1.6 | 33.8 nM | 33.7 nM | 53.8 nM |  | 
COc1ccc(CC(=O)Nc2nc3ccc(Cl)cc3c3nc(-c4ccco4)nn23)cc1 | 1.9 | 2.1 | 14.4 nM | 28 nM | 30.2 nM |  | 
Nc1nc2ccc(Cl)cc2c2nc(-c3ccc(Br)o3)nn12 |  |  |  |  |  | 16% | 
O=C(Cc1cccc(Cl)c1)Nc1nc2ccc(Cl)cc2c2nc(-c3ccco3)nn12 | 0.29 | 1.3 | 32.1 nM | 9.43 nM | 43 nM | 45% | 
C[C@@H](C(=O)Nc1nc2ccc(Cl)cc2c2nc(-c3ccco3)nn12)c1ccccc1 |  |  | 0.468 nM | 20.1 nM | 37.5 nM |  | 
CC(C)(C)OC(=O)Nc1nc2ccc(Cl)cc2c2nc(-c3ccco3)nn12 |  |  |  |  |  | 92% | 2410 nM
CC(C)(C)C(=O)Nc1nc2ccc(Cl)cc2c2nc(-c3ccco3)nn12 |  |  |  |  |  | 89% | 2400 nM
Oc1nc2ccc(Cl)cc2c2nc(-c3ccco3)nn12 |  |  |  |  |  | 0% | 
